Where two headings read alike, the source gives them in different places.
Experiments:
HCV genotype 1b replicon = test: HCV replicon assay, genotype 1b replicon EC50; format: cell-based, Hepatitis C virus; details: Hepatitis C virus, read-out: EC50 [gt-1b]
Procedure, shortened: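 Assay format: compound titration on stable replicon cells, no G418 during treatment, 24 to 48 hours. Lysates were assayed for replicon RNA (hybridization/protection or TaqMan) or luciferase; EC50 fitted to four parameters against DMSO.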

[1] = target: HCV NS3/4A protease genotype 1b (Hepatitis C virus genotype 1b, UniProt P26663); test: HCV NS3/4A protease time-resolved fluorescence (TRF) assay, Ki against genotype 1b; format: biochemical
Procedure, shortened: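 First, protease (genotype 1b 0.2 nM, A156T 0.4 nM, genotype 3a 0.025 nM) is preincubated 30 min with inhibitor. Next, 25 nM TRF substrate starts the reaction, run 2.5 h at room temperature. Finally, europium fluorescence is read and Ki calculated from IC50.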

[2] = IC50 [gt-1b] (nM), NS3/4A genotype 1b, enzyme 0.2 nM, K+ salt
[3] = IC50 [gt-1b] (nM), NS3/4A genotype 1b, enzyme 0.2 nM

Compound	EC50 (HCV genotype 1b replicon; genotype 1b replicon)	IC50 [1, 3]	also measured
COc1ccc2nc(C)c3c(c2c1)CC[C@]1(C[C@H]2C(=O)N[C@]4(C(=O)NS(=O)(=O)C5(C)CC5)C[C@H]4/C=C\CCCCC[C@H](NC(=O)OCC(C)(C)C)C(=O)N2C1)O3 [Example 205, 2,2-dimethylpropyl [(2R,6S,12Z,13aS,14aR,16aS)-9′-methoxy-5′-methyl-14a-{[(1-methylcyclopropyl)sulfonyl]carbamoyl}-5,16-dioxo-1,1′,2′,5,6,7,8,9,10,11,13a,14,14a,15,16,16a-hexadecahydrospiro[cyclopropa[e]pyrrolo[1,2-a][1,4]diazacyclopentadecine-2,3′-pyrano[2,3-c]quinolin]-6-yl]carbamate]			EC50 (HCV genotype 1b replicon; genotype 1b replicon, K+ salt): 0.647 nM; IC50 [1, 2]: 0.005 nM
Cc1nc2ccc(Cl)cc2c2c1O[C@]1(CC2)C[C@H]2C(=O)N[C@]3(C(=O)NS(=O)(=O)C4(C)CC4)C[C@H]3/C=C\CCCCC[C@H](NC(=O)OC3CCC3)C(=O)N2C1 [Example 185, cyclobutyl [(2R,6S,12Z,13aS,14aR,16aS)-9′-chloro-5′-methyl-14a-{[(1-methylcyclopropyl)sulfonyl]carbamoyl}-5,16-dioxo-1,1′,2′,5,6,7,8,9,10,11,13a,14,14a,15,16,16a-hexadecahydrospiro[cyclopropa[e]pyrrolo[1,2-a][1,4]diazacyclopentadecine-2,3′-pyrano[2,3-c]quinolin]-6-yl]carbamate]			EC50 (HCV genotype 1b replicon; genotype 1b replicon, K+ salt): 4.14 nM; IC50 [1, 2]: 0.005 nM
Cc1nc2cc(F)ccc2c2c1O[C@]1(CC2)C[C@H]2C(=O)N[C@]3(C(=O)NS(=O)(=O)C4(C)CC4)C[C@H]3/C=C\CCCCC[C@H](NC(=O)OC3CCCC3)C(=O)N2C1 [Example 327, cyclopentyl [(2R,6S,12Z,13aS,14aR,16aS)-8′-fluoro-5′-methyl-14a-{[(1-methylcyclopropyl)sulfonyl]carbamoyl}-5,16-dioxo-1,1′,2′,5,6,7,8,9,10,11,13a,14,14a,15,16,16a-hexadecahydrospiro[cyclopropa[e]pyrrolo[1,2-a][1,4]diazacyclopentadecine-2,3′-pyrano[2,3-c]quinolin]-6-yl]carbamate]			EC50 (HCV genotype 1b replicon; genotype 1b replicon, K+ salt): 3.61 nM; IC50 [1, 2]: 0.026 nM
COc1ccc2nc(C(F)(F)F)c3c(c2n1)C(F)C[C@]1(C[C@H]2C(=O)N[C@]4(C(=O)NS(=O)(=O)C5(C)CC5)C[C@H]4/C=C\CCCCC[C@H](NC(=O)OC(C)(C)C)C(=O)N2C1)O3 (stereo partly drawn) [Example 33, tert-butyl ((2S,6S,13aS,14aR,16aS,Z)-10′-fluoro-2′-methoxy-14a-(((1-methylcyclopropyl)sulfonyl)carbamoyl)-5,16-dioxo-6′-(trifluoromethyl)-3,5,6,7,8,9,9′,10,10′, 11,13a,14,14a,15,16,16a-hexadecahydro-1H-spiro[cyclopropa[e]pyrrolo[1,2-a][1,4]diazacyclopentadecine-2,8′-pyrano[2,3-c][1,5]naphthyridin]-6-yl)carbamate]	1.65 nM	0.042 nM	
Cc1ccc2nc(C)c3c(c2c1)CC[C@]1(C[C@H]2C(=O)N[C@]4(C(=O)NS(=O)(=O)C5(C)CC5)C[C@H]4/C=C\CCCCC[C@H](NC(=O)OC(C)C)C(=O)N2C1)O3 [Example 109, propan-2-yl [(2R,6S,12Z,13aS,14aR,16aS)-5′,9′-dimethyl-14a-{[(1-methylcyclopropyl)sulfonyl]carbamoyl}-5,16-dioxo-1,1′,2′,5,6,7,8,9,10,11,13a,14,14a,15,16,16a-hexadecahydrospiro[cyclopropa[e]pyrrolo[1,2-a][1,4]diazacyclopentadecine-2,3′-pyrano[2,3-c]quinolin]-6-yl]carbamate]	0.944 nM	0.011 nM	
Cc1nc2ccccc2c2c1O[C@]1(CC2)C[C@H]2C(=O)N[C@]3(C(=O)NS(=O)(=O)C4(C)CC4)C[C@H]3/C=C\CCCCC[C@H](NC(=O)O[C@H]3C[C@H]4CC[C@@H]3C4)C(=O)N2C1 [Example 181, (1R,2S,4S)-bicyclo[2.2.1]hept-2-yl [(2R,6S,12Z,13aS,14aR,16aS)-5′-methyl-14a-{[(1-methylcyclopropyl)sulfonyl]carbamoyl}-5,16-dioxo-1,1′,2′,5,6,7,8,9,10,11,13a,14,14a,15,16,16a-hexadecahydrospiro[cyclopropa[e]pyrrolo[1,2-a][1,4]diazacyclopentadecine-2,3′-pyrano[2,3-c]quinolin]-6-yl]carbamate]	0.39 nM	0.017 nM	
Cc1nc2ccccc2c2c1O[C@]1(CC2)C[C@H]2C(=O)N[C@]3(C(=O)CS(=O)(=O)C4(C)CC4)C[C@H]3/C=C\CCCCC[C@H](NCCC3CCCC3)C(=O)N2C1 [Example 161]		0.138 nM	EC50 (HCV genotype 1b replicon; GETYPE1B|GT1B, genotype 1b replicon): 3.02 nM
[2H]C([2H])(F)Oc1ccc2nc(C)c3c(c2c1)[C@H](F)C[C@]1(C[C@H]2C(=O)N[C@]4(C(=O)NS(=O)(=O)C5(C)CC5)C[C@H]4/C=C\CCCCC[C@H](NC(=O)OCC(C)(C)C)C(=O)N2C1)O3 [Example 403, 2,2-dimethylpropyl [(1′R,2S,6S,12Z,13aS,14aR,16aS)-1′-fluoro-9′-{[fluoro(^2H2)methyl]oxy}-5′-methyl-14a-{[(1-methylcyclopropyl)sulfonyl]carbamoyl}-5,16-dioxo-1,1′,2′,5,6,7,8,9,10,11,13a,14,14a,15,16,16a-hexadecahydrospiro[cyclopropa[e]pyrrolo[1,2-a][1,4]diazacyclopentadecine-2,3′-pyrano[2,3-c]quinolin]-6-yl]carbamate]			EC50 (HCV genotype 1b replicon; HCV replicon, genotype 1b, K+ salt): 1.92 nM; IC50 ([1]; IC50 [gt-1b], NS3/4A protease TRF assay, genotype 1b enzyme 0.2 nM, K+ salt): 0.013 nM
Cc1nc2ccccc2c2c1O[C@]1(CC2)C[C@H]2C(=O)N[C@]3(C(=O)NS(=O)(=O)C4(C)CC4)C[C@H]3/C=C\CCCCC[C@H](NC(=O)OC3C[C@H]4C=C[C@@H]3C4)C(=O)N2C1 (stereo partly drawn) [Example 257, (1S,4S)-bicyclo[2.2.1]hept-5-en-2-yl [(2R,6S,12Z,13aS,14aR,16aS)-5′-methyl-14a-{[(1-methylcyclopropyl)sulfonyl]carbamoyl}-5,16-dioxo-1,1′,2′,5,6,7,8,9,10,11,13a,14,14a,15,16,16a-hexadecahydrospiro[cyclopropa[e]pyrrolo[1,2-a][1,4]diazacyclopentadecine-2,3′-pyrano[2,3-c]quinolin]-6-yl]carbamate]	3.25 nM	0.018 nM	
COc1ccc2nc(C(F)(F)F)c3c(c2c1)[C@@H](O)C[C@]1(C[C@H]2C(=O)N[C@]4(C(=O)NS(=O)(=O)C5(C)CC5)C[C@H]4/C=C\CCCCC[C@H](NC(=O)OC(C)(C)C)C(=O)N2C1)O3 [Example 55, tert-Butyl [(1′S,2S,6S,12Z,13aS,14aR,16aS)-1′-hydroxy-9′-methoxy-14a-{[(1-methylcyclopropyl)sulfonyl]carbamoyl}-5,16-dioxo-5′-(trifluoromethyl) -1,1′,2′,5,6,7,8,9,10,11,13a,14,14a,15,16,16a-hexadecahydrospiro[cyclopropa[e]pyrrolo[1,2-a][1,4]diazacyclopentadecine-2,3′-pyrano[2,3-c]quinolin]-6-yl]carbamate]	0.578 nM	0.007 nM	
Cc1nc2ccc(OC(F)(F)F)cc2c2c1O[C@]1(CC2)C[C@H]2C(=O)N[C@]3(C(=O)NS(=O)(=O)C4(C)CC4)C[C@H]3/C=C\CCCCC[C@H](NC(=O)OC3(C)CCC3)C(=O)N2C1 [Example 174, 1-methylcyclobutyl [(2R,6S,12Z,13aS,14aR,16aS)-5′-methyl-14a-{[(1-methylcyclopropyl)sulfonyl]carbamoyl}-5,16-dioxo-9′-(trifluoromethoxy)-1,1′,2′,5,6,7,8,9,10,11,13a,14,14a,15,16,16a-hexadecahydrospiro[cyclopropa[e]pyrrolo[1,2-a][1,4]diazacyclopentadecine-2,3′-pyrano[2,3-c]quinolin]-6-yl]carbamate]	2.33 nM	0.007 nM	
CC(C)(C)OC(=O)N[C@H]1CCCCC/C=C\[C@@H]2C[C@@]2(C(=O)NS(=O)(=O)C2(C)CC2)NC(=O)[C@@H]2C[C@]3(CCc4c(c(C(F)F)nc5ccccc45)O3)CN2C1=O [Example 306, tert-butyl [(2R,6S,12Z,13aS,14aR,16aS)-5′-(difluoromethyl)-14a-{[(1-methylcyclopropyl)sulfonyl]carbamoyl}-5,16-dioxo-1,1′,2′,5,6,7,8,9,10,11,13a,14,14a,15,16,16a-hexadecahydrospiro[cyclopropa[e]pyrrolo[1,2-a][1,4]diazacyclopentadecine-2,3′-pyrano[2,3-c]quinolin]-6-yl]carbamate]	1.87 nM	0.015 nM	
CCCCCOC(=O)N[C@H]1CCCCC/C=C\[C@@H]2C[C@@]2(C(=O)NS(=O)(=O)C2(C)CC2)NC(=O)[C@@H]2C[C@]3(CCc4c(c(C5CC5)nc5cc(OC)ccc45)O3)CN2C1=O [Example 273, pentyl [(2R,6S,12Z,13aS,14aR,16aS)-5′-cyclopropyl-8′-methoxy-14a-{[(1-methylcyclopropyl)sulfonyl]carbamoyl}-5,16-dioxo-1,1′,2′,5,6,7,8,9,10,11,13a,14,14a,15,16,16a-hexadecahydrospiro[cyclopropa[e]pyrrolo[1,2-a][1,4]diazacyclopentadecine-2,3′-pyrano[2,3-c]quinolin]-6-yl]carbamate]			EC50 (HCV genotype 1b replicon; genotype 1b replicon, HCOOH salt): 163 nM; IC50 ([1]; IC50 [gt-1b] (nM), NS3/4A genotype 1b, enzyme 0.2 nM, HCOOH salt): 1.13 nM
